Measurements published in patent publication US10858342B2, “Bicyclic imidazole derivatives useful for the treatment of renal diseases, cardiovascular diseases and fibrotic diseases” (Boehringer Ingelheim International GmbH, priority 2016, dated 2020).
Read-outs that look alike come from different tables or passages of the source.

Assays:
Assay type in all cases: biochemical, cynomolgus monkey
[1] = biological target: aldosterone synthase (CYP11B2) (Macaca fascicularis, UniProt A0A2K5UPL9); experiment: Inhibition of aldosterone synthase (cynomolgus adrenal mitochondria, aldosterone by mass spectrometry); settings: 2 μM corticosterone substrate, 50 units CYP11B2, 90 min, 37° C.; read-out: Aldosterone Inhibition IC50
Sequence of aldosterone synthase (CYP11B2) (Macaca fascicularis, UniProt A0A2K5UPL9) (A0A2K5UPL9 1-503): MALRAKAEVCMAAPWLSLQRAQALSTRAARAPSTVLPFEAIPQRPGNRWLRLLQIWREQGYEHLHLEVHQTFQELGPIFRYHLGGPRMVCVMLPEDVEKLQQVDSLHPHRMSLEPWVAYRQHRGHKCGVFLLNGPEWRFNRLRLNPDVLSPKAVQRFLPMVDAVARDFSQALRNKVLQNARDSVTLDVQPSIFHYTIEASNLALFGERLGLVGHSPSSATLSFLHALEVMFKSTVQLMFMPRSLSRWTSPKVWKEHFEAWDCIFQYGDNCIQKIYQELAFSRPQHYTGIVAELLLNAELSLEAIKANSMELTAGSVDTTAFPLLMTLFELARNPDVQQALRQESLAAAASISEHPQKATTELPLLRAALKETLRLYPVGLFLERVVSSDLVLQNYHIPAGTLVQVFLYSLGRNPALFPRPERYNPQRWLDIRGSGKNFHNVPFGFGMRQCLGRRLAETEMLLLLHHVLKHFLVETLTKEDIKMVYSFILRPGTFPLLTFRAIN
Method: (§1) The aldosterone synthase and cortisol synthase inhibition assays employ cynomolgus adrenal gland mitochondria as the source of aldosterone synthase (CYP11B2) and cortisol synthase (CYP11B1). […] One unit of CYP11B2 and CYP11B1 activity in these preparations is defined as the amount of enzyme that generates 1 pmol of product in one hour under the conditions described.
(§2) The compounds of the invention may be evaluated for aldosterone synthase inhibition by the following assay:
(§3) Assays are performed in 96-well format in a final volume of 60 microL/well, containing 100 mM potassium phosphate, pH 7.4, 1% (v/v) DMSO, and additionally, 2 μM of corticosterone and 50 units of CYP11B2 activity. Reactions are started by the addition of NADPH to 1 mM and allowed to proceed for 90 minutes at 37° C. Reactions are terminated by the addition of 60 μL of MeCN containing an internal standard for mass spectrometry. One hundred microliters are then transferred to a glass filter plate and centrifuged at 570×g for 5 minutes and the filtrate is collected. Reaction product aldosterone is quantified by mass spectrometry. To determine the assay blank value (0% activity), NADPH is omitted from some reactions.
(§4) Dose dependent inhibition is quantified by the inclusion of compound at various concentrations. Maximum activity (100%) is defined by reactions containing NADPH, but without compound.

[2] = test system: aldosterone synthase (CYP11B2); experiment: as above; settings: selectivity for aldosterone synthase inhibition over cortisol synthase (CYP11B1) inhibition, fold
Method: as §1, §2, §3, §4

[3] = biological target: cortisol synthase (CYP11B1) (Macaca fascicularis, UniProt A0A2K5ULY1); experiment: Inhibition of cortisol synthesis (cynomolgus adrenal mitochondria, cortisol by mass spectrometry)
Method: The aldosterone synthase and cortisol synthase inhibition assays employ cynomolgus adrenal gland mitochondria as the source of aldosterone synthase (CYP11B2) and cortisol synthase (CYP11B1). Mitochondria are prepared from frozen cynomolgus monkey adrenal glands according to Method A described in by J. D. McGarry et al. (Biochem. J., 1983, 214, 21-28), with a final resuspension in the AT buffer described in R. Yamaguchi et al. (Cell Death and Differentiation, 2007, 14, 616-624), frozen as aliquots in liquid nitrogen and stored at −80° C. until use. One unit of CYP11B2 and CYP11B1 activity in these preparations is defined as the amount of enzyme that generates 1 pmol of product in one hour under the conditions described.
as §3
Dose dependent inhibition is quantified by the inclusion of compound at various concentrations. Maximum activity (100%) is defined by reactions containing NADPH, but without compound. Activities at each concentration are expressed as a percentage of the maximum activity (y-axis) and plotted against concentration of compound (x-axis) and the concentration corresponding to 50% activity (IC50) determined using the XLFit curve-fitting program using a 4-parameter logistic model.
Assays are performed as for aldosterone synthase except for the use of 150 units of CYP11B1, 11-deoxycortisol as substrate and cortisol measured as product.

[4] = read-out: Cortisol Inhibition IC50; 11-deoxycortisol substrate, 150 units CYP11B1
[5] = 11-deoxycortisol substrate, 150 units CYP11B1; read-out: Cortisol Inhibition IC50

Structure (SMILES)	IC50 [1] [nM]	Selectivity [2]	IC50 [3, 4] [nM]	IC50 [3, 5] [nM]
CC1(C)CC(=O)c2c(ncn2-c2ccc(C#N)c(Cl)c2)C1 [C-ABE, 2-Chloro-4-(5,5-dimethyl-7-oxo-4,5,6,7-tetrahydro-benzoimidazol-1-yl)-benzonitrile]	1.3	79	110	–
CC1(C)CC(=O)c2c(ncn2CC2CCOCC2)C1 [C-ADI, 6,6-Dimethyl-3-(tetrahydro-pyran-4-ylmethyl)-3,5,6,7-tetrahydro-benzoimidazol-4-one]	470	41	–	19000
Cc1cc(-n2cnc3c2C(=O)CC2(CCOCC2)C3)ccc1C#N [C-AAO, 2-Methyl-4-(7-oxospiro[4,6-dihydrobenzoimidazole-5,4′-tetrahydropyran]-1-yl)benzonitrile]	77	30	–	2300
Cc1nnsc1Cn1cnc2c1C(=O)CC(C)(C)C2 [C-ADC, 6,6-Dimethyl-3-(4-methyl-[1,2,3]thiadiazol-5-ylmethyl)-3,5,6,7-tetrahydro-benzoimidazol-4-one]	250	180	–	45000
CC1(C)CC(=O)c2c(ncn2-c2ccc(Cl)c(Cl)c2)C1 [C-ABD, 3-(3,4-Dichloro-phenyl)-6,6,-dimethyl-3,5,6,7-tetrahydro-benzoimidazol-4-one]	3.1	120	–	370
N#Cc1ccc(-n2cnc3c2C(=O)CC2(CCC2)C3)cc1Cl [C-ACG, 3-(4-Cyano, 3-chlorophenyl)-6,6-spirocyclobutyl-3,5,6,7-benzimidazolo-4-one]	12	7.5	93	–
CC1(C)CC(=O)c2c(ncn2Cc2ccc(S(C)(=O)=O)cc2)C1 [C-ADP, 3-(4-Methanesulfonyl-benzyl)-6,6-dimethyl-3,5,6,7-tetrahydro-benzoimidazol-4-one]	92	17	–	1600
CN1C(=O)CCc2cc(-n3cnc4c3C(=O)CCC4)ccc21 [C-ACD, 1-Methyl-6-(7-oxo-4,5,6,7-tetrahydro-benzoimidazol-1-yl)-3,4-dihydro-1H-quinolin-2-one]	60	920	–	55000
C[C@@H]1Cc2cc(-n3cnc4c3C(=O)CCC4)ccc2O1 (stereo in doubt) [C-AAZ-A, 3-(2-Methyl-2,3-dihydro-benzofuran-5-yl)-3,5,6,7-tetrahydro-benzoimidazol-4-one]	300	100	–	> 30000
CC1(C)CC(=O)c2c(ncn2-c2ccc3c(c2)OCO3)C1 [C-ABU, 3-Benzo[1,3]dioxol-5-yl-6,6-dimethyl-3,5,6,7-tetrahydro-benzoimidazol-4-one]	34	120	–	4200
CC(C)Oc1ccc(-n2cnc3c2C(=O)CC(C)(C)C3)cc1Cl [C-ABJ, 3-(3-Chloro-4-isopropoxy-phenyl)-6,6-dimethyl-3,5,6,7-tetrahydro-benzoimidazol-4-one]	75	1300	–	95000
O=C1CCCc2ncn(-c3ccc4c(c3)CCO4)c21 [C-AAE, 3-(2,3-Dihydro-benzofuran-5-yl)-3,5,6,7-tetrahydro-benzoimidazol-4-one]	11	890	–	9400
CN1C(=O)CCc2cc(-n3cnc4c3C(=O)CCC4)cnc21 [C-AAD, 1-Methyl-6-(7-oxo-4,5,6,7-tetrahydro-benzoimidazol-1-yl)-3,4-dihydro-1H-[1,8]naphthyridin-2-one]	150	200	–	> 30000
CN1C(=O)CCc2cc(-n3cnc4c3C(=O)CC3(CCC3)C4)ccc21 [C-AAV, 3-(1-Methyl-2-oxo-3,4-dihydroquinolin-6-yl)spiro[5,7-dihydrobenzimidazole-6,1′-cyclobutane]-4-one]	47	300	–	14000
CC1(C)CC(=O)c2c(ncn2-c2ccc(Cl)nc2)C1 [C-ABT, 3-(6-Chloro-pyridin-3-yl)-6,6-dimethyl-3,5,6,7-tetrahydro-benzoimidazol-4-one]	230	30	–	6900
COC(=O)c1ccc(Cn2cnc3c2C(=O)CC(C)(C)C3)cc1 [C-ACZ, 4-(5,5-Dimethyl-7-oxo-4,5,6,7-tetrahydro-benzoimidazol-1-ylmethyl)-benzoic acid methyl ester]	34	41	–	1400
Cc1ccc(-n2cnc3c2C(=O)CC(C)(C)C3)cc1 [C-ACB, 6,6-Dimethyl-3-p-tolyl-3,5,6,7-tetrahydro-benzoimidazol-4-one]	22	200	–	4400
Cc1cc(-n2cnc3c2C(=O)CC(C)(C)C3)ccc1C#N [C-ABV, 4-(5,5-Dimethyl-7-oxo-4,5,6,7-tetrahydro-benzoimidazol-1-yl)-2-methyl-benzonitrile]	6.6	20	–	130
CC1(C)CC(=O)c2c(ncn2Cc2ccc3[nH]ncc3c2)C1 [C-ACY, 3-(1H-Indazol-5-ylmethyl)-6,6-dimethyl-3,5,6,7-tetrahydro-benzoimidazol-4-one]	110	15	–	1700
Cn1ncc2ccc(-n3cnc4c3C(=O)CCC4)cc21 [C-AAH, 3-(1-Methyl-1H-indazol-6-yl)-3,5,67,-tetrahydro-benzoimidazol-4-one]	48	630	–	> 30000
CN1CCOc2cc(Cn3cnc4c3C(=O)CC(C)(C)C4)cnc21 [C-ADD, 6,6-Dimethyl-3-(4-methyl-3,4-dihydro-2H-pyrido[3,2-b][1,4]oxazin-7-ylmethyl)-3,5,6,7-tetrahydro-benzoimidazol-4-one]	540	20	–	11000
CC(=O)N1CCCc2cc(-n3cnc4c3C(=O)CCC4)ccc21 [C-AAF, 3-(1-Acetyl-1,2,3,4-tetrahydro-quinolin-6-yl)-3,5,6,7-tetrahydro-benzoimidazol-4-one]	37	270	–	10000
CC1CCc2ncn(-c3ccc(C#N)cc3)c2C1=O (stereo not drawn) [C-ADY, 4-(6-Methyl-7-oxo-4,5,6,7-tetrahydro-benzoimidazol-1-yl)-benzonitrile]	24	152	–	3640
CC1(C)CC(=O)c2c(ncn2Cc2ccc(-n3cncn3)cc2)C1 [C-ADB, 6,6-Dimethyl-3-(4-[1,2,4]triazol-1-yl-benzyl)-3,5,6,7-tetrahydro-benzoimidazol-4-one]	540	14	–	7400
O=C1CCCc2ncn(-c3ccc4c(c3)OCCCO4)c21 [C-AAJ, 3-(3,4-Dihydro-2H-benzo[b][1,4]dioxepin-7-yl)-3,5,6,7-tetrahydro-benzoimidazol-4-one]	440	67	–	> 30000
N#Cc1ccc(-n2cnc3c2C(=O)CC2(CCOCC2)C3)cc1 [C-AAS, 4-(7-Oxospiro[4,6-dihydrobenzimidazole-5,4′-tetrahydropyran]-1-yl)benzonitrile]	240	61	–	14000
